Assay results reported in patent US9981916B2 (Genentech, Inc., priority 2013, dated 2018).

biological target: T1, RORc ligand binding domain (Homo sapiens, UniProt P51449); assay: In vitro RORc ligand binding assay (25-[3H]hydroxycholesterol displacement, filter binding); conditions: 6 nM 25-[3H]hydroxycholesterol, 0.6 ug/mL RORc receptor, 3 h at 25° C.
T1 construct: host or cells: E. coli
T1 sequence (P51449 269-508 limits assumed): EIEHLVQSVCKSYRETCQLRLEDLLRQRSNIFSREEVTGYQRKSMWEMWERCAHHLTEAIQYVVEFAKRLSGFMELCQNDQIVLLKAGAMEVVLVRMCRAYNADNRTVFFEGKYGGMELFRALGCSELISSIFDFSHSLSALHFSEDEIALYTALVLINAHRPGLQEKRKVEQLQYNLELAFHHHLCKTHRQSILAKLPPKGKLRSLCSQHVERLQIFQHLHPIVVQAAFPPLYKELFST
In short: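 Compounds in 5% DMSO, either dose-response or screened at 1 and 10 uM, competed with 6 nM 25-[3H]hydroxycholesterol for 0.6 ug/mL RORc over 3 h at 25° C (HEPES pH 7.4, NaCl, MgCl2, DTT, BSA buffer). Bound tracer was filter-harvested and counted; nonspecific binding came from 1 uM 25-hydroxycholesterol.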

Row | SMILES | IC50
1 | CN(C(=O)OC(C)(C)C)[C@@]12CC[C@@H](c3cc(-c4c(F)cccc4F)nnc31)C2(C)C [Example 281, tert-butyl ((5R,8R)-3-(2,6-difluorophenyl)-9,9-dimethyl-5,6,7,8-tetrahydro-5,8-methanocinnolin-8-yl)(methyl)carbamate] | 218 nM
2 | CC1(C)[C@@H]2CC[C@@]1(C(=O)NCC(F)F)c1nnc(-c3c(F)cccc3F)cc12 [Example 210, (5S,8S)-N-(2,2-difluoroethyl)-3-(2,6-difluorophenyl)-9,9-dimethyl-5,6,7,8-tetrahydro-5,8-methanocinnoline-8-carboxamide] | 528 nM
3 | Cc1ccn(C[C@]23CC[C@H](c4cc(-c5ccccc5F)nnc42)C3(C)C)n1 [Example 44, (5S,8R)-3-(2-fluorophenyl)-9,9-dimethyl-8-[(3-methyl-1H-pyrazol-1-yl)methyl]-5,6,7,8-tetrahydro-5,8-methanocinnoline] | 607 nM
4 | CCN(C[C@@]12CC[C@@H](c3cc(-c4c(F)cccc4F)nnc31)C2(C)C)C(=O)c1cc(C)on1 [Example 158, N-(((5R,8S)-3-(2,6-difluorophenyl)-9,9-dimethyl-5,6,7,8-tetrahydro-5,8-methanocinnolin-8-yl)methyl)-N-ethyl-5-methylisoxazole-3-carboxamide] | 6 nM
5 | CC1(C)[C@H]2CC[C@]1(C(=O)N1CCC1)c1nnc(-c3c(F)cccc3F)cc12 [Example 141, azetidin-1-yl((5R,8R)-3-(2,6-difluorophenyl)-9,9-dimethyl-5,6,7,8-tetrahydro-5,8-methanocinnolin-8-yl)methanone] | 608 nM
6 | CC1(C)[C@H]2CC[C@]1(CNC1COC1)c1nnc(-c3c(F)cccc3F)cc12 [Example 317, N-(((5R,8S)-3-(2,6-difluorophenyl)-9,9-dimethyl-5,6,7,8-tetrahydro-5,8-methanocinnolin-8-yl)methyl)oxetan-3-amine] | 1920 nM
7 | CC1(C)[C@@H]2CC[C@@]1(C(=O)NCC1CC1)c1nnc(-c3c(F)cccc3F)cc12 [Example 202, (5S,8S)-N-(cyclopropylmethyl)-3-(2,6-difluorophenyl)-9,9-dimethyl-5,6,7,8-tetrahydro-5,8-methanocinnoline-8-carboxamide] | 193 nM
8 | CCOC(=O)N(CC)C[C@@]12CC[C@@H](c3cc(-c4c(F)cccc4F)nnc31)C2(C)C [Example 277, ethyl (((5R,8S)-3-(2,6-difluorophenyl)-9,9-dimethyl-5,6,7,8-tetrahydro-5,8-methanocinnolin-8-yl)methyl)(ethyl) carbamate] | 5 nM
9 | COC[C@@]12CC[C@@H](c3cc(-c4c(F)cccc4F)nnc31)C2(C)C [Example 30, (5R,8R)-3-(2,6-difluorophenyl)-8-(methoxymethyl)-9,9-dimethyl-5,6,7,8-tetrahydro-5,8-methanocinnoline] | 45 nM
10 | CN(C)CC(=O)N[C@@]12CC[C@@H](c3cc(-c4ccccc4F)nnc31)C2(C)C [Example 89, N-[(5R,8R)-3-(2-fluorophenyl)-9,9-dimethyl-6,7-dihydro-5,8-methanocinnolin-8(5H)-yl]-N~2~,N~2~- dimethylglycinamide] | 5190 nM
11 | CC1(C)C2CCC1(C(=O)N1CC(N3CC[C@H](F)C3)C1)c1nnc(-c3c(F)cccc3F)cc12 (stereo in doubt) [Example 248, ((5S,8S)-3-(2,6-difluorophenyl)-9,9-dimethyl-5,6,7,8-tetrahydro-5,8-methanocinnolin-8-yl)(3-((S)-3-fluoropyrrolidin-1-yl)azetidin-1-yl) methanone] | 387 nM
12 | CC(=O)OC[C@@]12CC[C@@H](c3cc(Oc4c(F)cccc4F)nnc31)C2(C)C [Example 339, ((5R,8R)-3-(2,6-difluorophenoxy)-9,9-dimethyl-5,6,7,8-tetrahydro-5,8-methanocinnolin-8-yl)methyl acetate] | 100 nM
13 | CNC(=O)[C@@H]1[C@@H]2CN(C(=O)[C@]34CC[C@H](c5cc(-c6c(F)cccc6F)nnc53)C4(C)C)C[C@@H]21 [Example 212, (1R,5S,6R)-3-((5S,8S)-3-(2,6-difluorophenyl)-9,9-dimethyl-5,6,7,8-tetrahydro-5,8-methanocinnoline-8-carbonyl)-N-methyl-3-azabicyclo[3.1.0]hexane-6-carboxamide] | 2140 nM
14 | CC1(C)[C@@H]2CC[C@@]1(CN1CCCC1=O)c1nnc(-c3ccccc3F)cc12 [Example 18, 1-{[(5S,8R)-3-(2-fluorophenyl)-9,9-dimethyl-6,7-dihydro-5,8-methanocinnolin-8(5H)-yl]methyl}pyrrolidin-2-one] | 4810 nM
15 | Cc1nnc(N(CCN(C)C)C[C@@]23CC[C@@H](c4cc(-c5c(F)cccc5F)nnc42)C3(C)C)o1 [Example 260, N1-(((5R,8S)-3-(2,6-difluorophenyl)-9,9-dimethyl-5,6,7,8-tetrahydro-5,8-methanocinnolin-8-yl)methyl)-N2,N2-dimethyl-N1-(5-methyl-1,3,4-oxadiazol-2-yl)ethane-1,2-diamine] | 3410 nM
16 | CN([C@@]12CC[C@@H](c3cc(-c4c(F)cccc4F)nnc31)C2(C)C)S(=O)(=O)C(F)(F)F [Example 319, N-((5R,8R)-3-(2,6-difluorophenyl)-9,9-dimethyl-5,6,7,8-tetrahydro-5,8-methanocinnolin-8-yl)-1,1,1-trifluoro-N-methylmethanesulfonamide] | 52 nM
17 | CC1(C)[C@@H]2CC(=O)[C@@]1(C)c1nnc(-c3ccccc3F)cc12 [Example 50, (5S,8R)-3-(2-fluorophenyl)-8,9,9-trimethyl-5,8-dihydro-5,8-methanocinnolin-7(6H)-one] | 2420 nM
18 | CC(C)CNC(=O)[C@]12CC[C@H](c3cc(-c4ccccc4F)nnc31)C2(C)C [Example 131, (5S,8S)-3-(2-fluorophenyl)-N-isobutyl-9,9-dimethyl-5,6,7,8-tetrahydro-5,8-methanocinnoline-8-carboxamide] | 1330 nM
19 | CC(=O)O[C@H]1C[C@@H]2c3cc(-c4ccccc4F)nnc3[C@@]1(C)C2(C)C [Example 19, (5S,7S,8R)-3-(2-fluorophenyl)-8,9,9-trimethyl-5,6,7,8-tetrahydro-5,8-methanocinnolin-7-yl acetate] | 683 nM
20 | CC1(C)[C@@H]2CC[C@@]1(C(=O)N1CCC(CCO)C1)c1nnc(-c3c(F)cccc3F)cc12 (stereo partly drawn) [Example 262, ((5S,8S)-3-(2,6-difluorophenyl)-9,9-dimethyl-5,6,7,8-tetrahydro-5,8-methanocinnolin-8-yl)(3-(2-hydroxyethyl)pyrrolidin-1-yl)methanone] | 314 nM
21 | CC1(C)[C@@H]2CC[C@@]1(C(=O)N1CCC[C@@H]1CO)c1nnc(-c3c(F)cccc3F)cc12 [Example 204, ((5S,8S)-3-(2,6-difluorophenyl)-9,9-dimethyl-5,6,7,8-tetrahydro-5,8-methanocinnolin-8-yl) ((R)-2-(hydroxymethyl)pyrrolidin-1-yl)methanone] | 600 nM
22 | COC[C@@]12CC[C@@H](c3cc(-c4c(F)cccc4Cl)nnc31)C2(C)C [Example 29, (5R,8R)-3-(2-chloro-6-fluorophenyl)-8-(methoxymethyl)-9,9-dimethyl-5,6,7,8-tetrahydro-5,8-methanocinnoline] | 41 nM
23 | CC1(O)CN(C(=O)[C@]23CC[C@H](c4cc(-c5c(F)cccc5F)nnc42)C3(C)C)C1 [Example 92, [(5S,8S)-3-(2,6-difluorophenyl)-9,9-dimethyl-6,7-dihydro-5,8-methanocinnolin-8(5H)-yl](3-hydroxy-3-methylazetidin-1-yl)methanone] | 2990 nM
24 | CC1(C)[C@H]2CC[C@]1(Cc1ncon1)c1nnc(-c3c(F)cccc3F)cc12 [Example 57, (5R,8R)-3-(2,6-difluorophenyl)-9,9-dimethyl-8-(1,2,4-oxadiazol-3-ylmethyl)-5,6,7,8-tetrahydro-5,8-methanocinnoline] | 85 nM
25 | CC1(C)[C@H]2CC[C@]1(C(=O)N1CC(F)(F)C1)c1nnc(-c3ccccc3F)cc12 [Example 172, (3,3-difluoroazetidin-1-yl)((5R,8R)-3-(2-fluorophenyl)-9,9-dimethyl-5,6,7,8-tetrahydro-5,8-methanocinnolin-8-yl)methanone] | 1410 nM
26 | Cc1nc(C[C@]23CC[C@H](c4cc(-c5ccccc5F)nnc42)C3(C)C)no1 [Example 39, (5S,8S)-3-(2-fluorophenyl)-9,9-dimethyl-8-[(5-methyl-1,2,4-oxadiazol-3-yl)methyl]-5,6,7,8-tetrahydro-5,8-methanocinnoline] | 1730 nM
27 | COCCn1nccc1[C@@]12CC[C@@H](c3cc(-c4c(F)cccc4F)nnc31)C2(C)C [Example 267, (5R,8S)-3-(2,6-difluorophenyl)-8-(1-(2-methoxyethyl)-1H-pyrazol-5-yl)-9,9-dimethyl-5,6,7,8-tetrahydro-5,8-methanocinnoline] | 339 nM
28 | CN(C)C(=O)N(C)[C@@]12CC[C@@H](c3cc(-c4c(F)cccc4F)nnc31)C2(C)C [Example 325, 1-((5R,8R)-3-(2,6-difluorophenyl)-9,9-dimethyl-5,6,7,8-tetrahydro-5,8-methanocinnolin-8-yl)-1,3,3-trimethylurea] | 944 nM
29 | CC1(C)[C@@H]2CC[C@@]1(C(=O)N1CC(F)(F)C1)c1nnc(-c3ccccc3F)cc12 [Example 332, (3,3-difluoroazetidin-1-yl)((5S,8S)-3-(2-fluorophenyl)-9,9-dimethyl-5,6,7,8-tetrahydro-5,8-methanocinnolin-8-yl)methanone] | 1400 nM
